According to ChEMBL document CHEMBL1140075 (J Med Chem, 2008):
The source made the active and inactive calls. The rule behind the calls is not given here. Positions of bridges follow the written chain, without caps; N, C: chain ends. Residues, ends and D or L forms follow the SMILES beside them.

Tests used:
[1] = target: Neuronal acetylcholine receptor subunit alpha-7 (Rattus norvegicus, UniProt Q05941)
[2] = target: Acetylcholine-binding protein (Lymnaea stagnalis, UniProt P58154)
[3] = Stability assessed as half life of native globular conformation state in presence of reduced glutathione at 500 uM; assay type: physicochemical; conditions: solution with 500 uM reduced glutathione
[4] = Stability assessed as loss of native globular conformation level in presence of reduced glutathione at 500 uM at 2 hrs; assay type: physicochemical; conditions: solution with 500 uM reduced glutathione; read-out: Activity
[5] = target: Neuronal acetylcholine receptor subunit alpha-7 (Rattus norvegicus) (UniProt Q05941); assay: Activity at rat alpha7 nAChR expressed in Xenopus laevis assessed as inhibition of acetylcholine-induced current at holding potential of -80 mV up to 1 uM by two-electrode voltage clamp technique
[6] = target: Neuronal acetylcholine receptor subunit alpha-7 (Rattus norvegicus) (UniProt Q05941); assay: Activity at rat alpha7 nAChR expressed in Xenopus laevis assessed as inhibition of acetylcholine-induced current at holding potential of -80 mV up to 10 uM by two-electrode voltage clamp technique
[7] = Stability assessed as native globular conformation level in presence of reduced glutathione at 500 uM at 24 hrs; assay type: physicochemical; conditions: solution with 500 uM reduced glutathione; read-out: Stability
physchem = conditions: solution with 500 uM reduced glutathione

Neuronal acetylcholine receptor subunit alpha-7, sequence (Q05941 whole entry): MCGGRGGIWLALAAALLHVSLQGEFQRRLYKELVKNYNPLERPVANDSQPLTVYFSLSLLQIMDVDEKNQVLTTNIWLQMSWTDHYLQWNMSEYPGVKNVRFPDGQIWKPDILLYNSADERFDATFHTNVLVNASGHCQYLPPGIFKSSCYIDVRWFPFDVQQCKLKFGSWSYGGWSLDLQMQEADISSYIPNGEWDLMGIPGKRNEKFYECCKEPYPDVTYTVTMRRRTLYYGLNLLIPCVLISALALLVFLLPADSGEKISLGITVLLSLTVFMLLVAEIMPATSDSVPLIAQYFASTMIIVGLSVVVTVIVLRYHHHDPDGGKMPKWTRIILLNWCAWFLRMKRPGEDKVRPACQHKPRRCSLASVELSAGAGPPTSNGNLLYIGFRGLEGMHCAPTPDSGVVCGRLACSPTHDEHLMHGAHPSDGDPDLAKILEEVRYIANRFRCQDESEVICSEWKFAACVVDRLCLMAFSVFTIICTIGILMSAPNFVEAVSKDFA
Neuronal acetylcholine receptor subunit alpha-7 (Rattus norvegicus), sequence (Q05941 whole entry): as above
Acetylcholine-binding protein, sequence (P58154 whole entry): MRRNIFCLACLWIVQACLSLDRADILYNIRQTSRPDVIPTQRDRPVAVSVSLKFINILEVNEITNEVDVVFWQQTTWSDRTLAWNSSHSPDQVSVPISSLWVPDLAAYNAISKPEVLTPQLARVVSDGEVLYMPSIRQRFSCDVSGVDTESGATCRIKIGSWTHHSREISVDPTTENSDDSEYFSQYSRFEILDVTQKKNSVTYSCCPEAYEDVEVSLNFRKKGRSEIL

| Compound | IC50 [1] | Ki [2] | half-life [3] | degraded at 2 h [4] | Activity [5] | Activity [6] | remaining at 24 h [7] | remaining at 8 h, 500 µM (physchem) |
| --- | --- | --- | --- | --- | --- | --- | --- | --- |
| CC(C)C[C@@H]1NC(=O)[C@H](C)NC(=O)[C@@H]2CSSC[C@H](NC(=O)CN)C(=O)N[C@@H](CSSC[C@@H](C(=O)O)NC(=O)[C@H](CC(N)=O)NC(=O)[C@H](CC(N)=O)NC1=O)C(=O)N[C@@H](CO)C(=O)N[C@@H](CC(C)C)C(=O)N1CCC[C@H]1C(=O)N1CCC[C@H]1C(=O)N2 (H-GCCSLPPCALNNC-OH; disulfide 2-8, 3-13) | 207 nM | 4.5 µM | < 30 min | > 80% |  |  |  |  |
| CC(C)C[C@@H]1NC(=O)[C@H](C)NC(=O)[C@@H]2CSSC[C@H](NC(=O)CN)C(=O)N[C@@H](CSSC[C@@H](C(=O)O)NC(=O)[C@H](CC(N)=O)NC1=O)C(=O)N[C@@H](CO)C(=O)N[C@@H](CC(C)C)C(=O)N1CCC[C@H]1C(=O)N1CCC[C@H]1C(=O)N2 (H-GCCSLPPCALNC-OH; disulfide 2-8, 3-12) | > 10000 nM | 7.9 µM | < 30 min | > 80% | inactive |  |  |  |
| CC(C)C[C@@H]1NC(=O)[C@H](C)NC(=O)[C@@H]2CSSC[C@H](NC(=O)CN)C(=O)N[C@@H](CSSC[C@@H](C(=O)O)NC(=O)[C@@H]3CCCN3C(=O)[C@H](CC(N)=O)NC(=O)[C@H](CC(N)=O)NC1=O)C(=O)N[C@@H](CO)C(=O)N[C@@H](CC(C)C)C(=O)N1CCC[C@H]1C(=O)N1CCC[C@H]1C(=O)N2 (H-GCCSLPPCALNNPC-OH; disulfide 2-8, 3-14) | 79 nM | 4.6 µM | < 30 min | > 80% |  |  |  |  |
| CC(C)C[C@@H]1NC(=O)[C@H](CO)NC(=O)[C@@H]2CSSC[C@@H](C(=O)O)NC(=O)[C@H](Cc3ccc(O)cc3)NC(=O)[C@H](CC(=O)O)NC(=O)[C@@H]3CCCN3C(=O)[C@H](CC(N)=O)NC(=O)[C@H](CC(N)=O)NC(=O)[C@H](C)NC(=O)[C@H](C)NC(=O)[C@H](CSSC[C@H](NC(=O)CN)C(=O)N2)NC(=O)[C@@H]2CCCN2C(=O)[C@@H]2CCCN2C1=O (H-GCCSLPPCAANNPDYC-OH; disulfide 2-8, 3-16) | 252 nM | 0.124 µM |  |  |  |  |  |  |
| CC(C)C[C@@H]1NC(=O)[C@H](C)NC(=O)[C@@H]2CSSC[C@H](NC(=O)CN)C(=O)N[C@@H](CSSC[C@@H](C(=O)O)NC(=O)[C@H](CC(N)=O)NC1=O)C(=O)N[C@@H](CO)C(=O)N[C@@H](CC(C)C)C(=O)N1CCC[C@H]1C(=O)N[C@@H](CCCNC(=N)N)C(=O)N2 (H-GCCSLPRCALNC-OH; disulfide 2-8, 3-12) |  |  | 60 min |  |  | inactive | 40% |  |
| CC(C)C[C@@H]1NC(=O)[C@H](C)NC(=O)[C@@H]2CSSC[C@H](NC(=O)CN)C(=O)N[C@@H](CSSC[C@@H](C(=O)O)NC(=O)[C@H](CC(=O)O)NC(=O)[C@@H]3CCCN3C(=O)[C@H](CC(N)=O)NC(=O)[C@H](CC(N)=O)NC1=O)C(=O)N[C@@H](CO)C(=O)N[C@@H](CC(C)C)C(=O)N1CCC[C@H]1C(=O)N1CCC[C@H]1C(=O)N2 (H-GCCSLPPCALNNPDC-OH; disulfide 2-8, 3-15) | 115 nM | 3.1 µM | 120 min |  |  | inactive |  | 40% |
